Laboratory results taken from paper PMC12171880, “Selectivity and Safety Characterization of a Xanthine–Imidazothiazole Lead Structure: a Novel Tryptophan Hydroxylase Inhibitor of Peripheral Serotonin Synthesis” (ACS Pharmacology & Translational Science, 2025).

Experiments:
human recombinant TPH2 = molecular target: T1, human recombinant TPH2 (Homo sapiens, UniProt Q8IWU9); experiment: TPH2 enzymatic activity assay (fluorescence, 96-well); assay type: biochemical
T1 construct: Full-length human TPH1 and TPH2 (UniProt entries P17752 and Q8IWU9); MBP (N); made in house
T1 sequence (Q8IWU9 1-490): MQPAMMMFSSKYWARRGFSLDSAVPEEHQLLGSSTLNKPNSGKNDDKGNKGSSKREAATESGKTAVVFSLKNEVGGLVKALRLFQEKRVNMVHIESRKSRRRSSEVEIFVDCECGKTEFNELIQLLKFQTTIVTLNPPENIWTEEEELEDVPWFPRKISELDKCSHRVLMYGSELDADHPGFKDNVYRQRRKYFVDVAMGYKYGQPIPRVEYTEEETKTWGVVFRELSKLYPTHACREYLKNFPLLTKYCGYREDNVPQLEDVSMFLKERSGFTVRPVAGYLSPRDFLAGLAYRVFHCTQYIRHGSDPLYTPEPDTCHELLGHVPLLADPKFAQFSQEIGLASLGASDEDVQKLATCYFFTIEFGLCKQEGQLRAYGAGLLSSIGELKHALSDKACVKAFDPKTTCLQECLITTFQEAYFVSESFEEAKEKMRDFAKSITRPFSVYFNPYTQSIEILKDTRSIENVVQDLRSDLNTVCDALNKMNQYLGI

[1] = test system: 97 targets (receptors, enzymes, and ion channels); experiment: Eurofins Diversity Panel, 97 binding, enzyme and uptake assays; conditions: 10 μM
Method: (§1) TPT-004 was evaluated at a concentration of 10 μM in a total of 97 binding, enzyme, and uptake assays (Diversity Panel) by Eurofins Cerep (Celle l’Evescault, France). Compound binding was calculated as % inhibition of the binding of a ligand specific to each target. The compound enzyme inhibition effect was calculated as percentage inhibition of the control enzyme activity. Results showing an inhibition (or stimulation for assays run under basal conditions) of >50% are considered to represent significant effects of the test compounds. Results showing an inhibition (or stimulation) between 25% and 50% are indicative of weak to moderate effects. Results showing an inhibition (or stimulation) lower than 25% are not considered significant and are mostly attributable to variability in the signal around the control level. […] In each experiment, and if applicable, the respective reference compound was tested concurrently with TPT-004, and the data were compared with historical values determined at Eurofins. […]
(§2) The results are expressed as a percent of control-specific binding: measured specific binding/control specific binding×100 and as a percent inhibition of control-specific binding: 100−(measured specific binding/control specific binding×100) obtained in the presence of TPT-004. […]

rat homolog of TH = molecular target: T2, rat homolog of TH (Rattus norvegicus, UniProt P04177); experiment: Eurofins Diversity Panel enzyme assay, rat TH; assay type: biochemical
T2 construct: Eurofins Cerep (contract screening)
Method: as §1, §2

recombinant human TH = molecular target: T3, recombinant human TH (Homo sapiens, UniProt P07101); experiment: TH enzymatic activity assay (fluorescence, 96-well); assay type: biochemical
T3 construct: For purification of MBP-tagged full-length PAH and TH; made in house; host or cells: E. coli T7 Express (NEB) with pRARE2
Method: The TH enzymatic activity assay was performed using a 96-well plate format (Greiner). […] To initiate the reaction, L-Tyr (Fluka) was added (final concentration, 30 μM). The assay contained positive control samples (complete reaction mix, no inhibitor test compound), negative control samples (reaction mix without BH4), and an additional L-Tyr control (reaction mix without BH4, spiked with 25.5 μM or 27 μM L-Tyr) to measure the progression of the enzymatic reaction. All samples were measured in technical triplicates. The TH assay was performed at RT for 30 min. Depletion of the reaction substrate (L-Tyr) was continuously monitored at 240 s intervals by fluorescence measurements (ex.280 nm/em.306 nm) for 12 min using a Tecan Infinite 200 plate reader.
Negative control values (no enzyme or no substrate) were deducted from the positive control (full enzyme activity) and test compound values. Subsequently, the data were normalized (Pos. Ctr. = 100% of the enzyme activity). The results were further analyzed with GraphPad Prism 9 using the nonlinear regression model: log(inhibitor) vs. response−variableslope(fourparameters) which fits the following equation to the data: Y=Bottom+(Top−Bottom)/(1+10^((logIC50−X)×HillSlope))
The IC50 values were calculated from three independent experiments and are given as the mean ± SD.

[2] = calculated from determined IC50 values

T3 sequence (P07101 whole entry): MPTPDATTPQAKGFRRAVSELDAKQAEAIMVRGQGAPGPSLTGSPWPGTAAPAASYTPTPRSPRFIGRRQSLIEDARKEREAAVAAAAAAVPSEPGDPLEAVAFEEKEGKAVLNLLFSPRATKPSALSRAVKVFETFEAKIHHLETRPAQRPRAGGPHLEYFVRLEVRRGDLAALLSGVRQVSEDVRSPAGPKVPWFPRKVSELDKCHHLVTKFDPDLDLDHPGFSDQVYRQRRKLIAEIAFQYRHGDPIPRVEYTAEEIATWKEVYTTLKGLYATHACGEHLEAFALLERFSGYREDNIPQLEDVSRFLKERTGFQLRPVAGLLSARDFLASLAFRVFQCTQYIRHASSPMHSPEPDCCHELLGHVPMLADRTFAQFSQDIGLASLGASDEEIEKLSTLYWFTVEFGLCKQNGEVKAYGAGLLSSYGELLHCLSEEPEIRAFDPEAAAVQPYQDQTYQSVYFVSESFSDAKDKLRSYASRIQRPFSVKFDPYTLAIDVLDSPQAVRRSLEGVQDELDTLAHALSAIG
T2 sequence (P04177 whole entry): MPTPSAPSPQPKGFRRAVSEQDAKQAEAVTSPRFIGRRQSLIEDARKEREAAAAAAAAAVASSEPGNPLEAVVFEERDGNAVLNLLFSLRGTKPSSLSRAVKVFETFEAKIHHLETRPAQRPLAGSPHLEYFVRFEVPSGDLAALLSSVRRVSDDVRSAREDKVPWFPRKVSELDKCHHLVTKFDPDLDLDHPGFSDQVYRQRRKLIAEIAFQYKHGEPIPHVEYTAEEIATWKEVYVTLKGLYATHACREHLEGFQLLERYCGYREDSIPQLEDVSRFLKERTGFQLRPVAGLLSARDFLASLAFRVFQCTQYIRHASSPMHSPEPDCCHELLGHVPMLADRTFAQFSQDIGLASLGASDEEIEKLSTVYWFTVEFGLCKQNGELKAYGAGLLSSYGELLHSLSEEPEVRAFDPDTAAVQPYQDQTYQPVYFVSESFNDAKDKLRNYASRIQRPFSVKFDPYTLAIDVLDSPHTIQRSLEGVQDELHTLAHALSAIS

SMILES: CCn1c(=O)[nH]c(=O)c2c1nc(Cc1cn3cc(C)sc3n1)n2CC1COC1 [TPT-004]
- Mean TPH2 activity [%] (human recombinant TPH2; 3 nM): 100.37%
- IC50 (human recombinant TPH2; 3 nM to 10 μM, 30 μM L-Trp, 7.5 μM BH4): 21.7 nM
- Mean TPH2 activity [%] (human recombinant TPH2; 10 nM): 73.97%
- Mean TPH2 activity [%] (human recombinant TPH2; 30 nM): 38.03%
- Mean TPH2 activity [%] (human recombinant TPH2; 100 nM): 5.40%
- Mean TPH2 activity [%] (human recombinant TPH2; 300 nM): 1.60%
- Mean TPH2 activity [%] (human recombinant TPH2; 1 μM): 0.69%
- Mean TPH2 activity [%] (human recombinant TPH2; 3 μM): 1.07%
- Mean TPH2 activity [%] (human recombinant TPH2; 10 μM): 1.24%
- Selectivity ratio TPH2 IC50 : TPH1 IC50 (human recombinant TPH2; [2]): 0.65
- IC50 (human recombinant TPH2; supplementary CSV): 22 nM
- significant effects (more than 50% inhibition or stimulation) among 97 targets [1]: a significant effect was observed only for the rat homolog of TH
- inhibition at 10 µM (rat homolog of TH): 87.8%
- Mean TH activity [%] (recombinant human TH; 10 nM): 92.60%
- IC50 (recombinant human TH; 10 nM to 30 μM, 30 μM L-Tyr, 5 μM BH4): 1360 nM
- Mean TH activity [%] (recombinant human TH; 30 nM): 90.14%
- Mean TH activity [%] (recombinant human TH; 100 nM): 95.57%
- Mean TH activity [%] (recombinant human TH; 300 nM): 86.81%
- Mean TH activity [%] (recombinant human TH; 1 μM): 58.14%
- Mean TH activity [%] (recombinant human TH; 3 μM): 28.97%
- Mean TH activity [%] (recombinant human TH; 10 μM): 6.59%
- Mean TH activity [%] (recombinant human TH; 30 μM): -6.30%
- Selectivity ratio TH IC50 : TPH1 IC50 (recombinant human TH; [2]): 40.71
- IC50 (recombinant human TH; supplementary CSV): 1360 nM
